Assay results from patent publication US7332505B2, “Nitrosated and nitrosylated proton pump inhibitors, compositions and methods of use” (Nitromed, Inc., priority 1999, dated 2008).
Entries after “also recorded” stand apart in the source; their conditions may differ.

Test system: ethanol/HCl mixture-induced gastric lesions
Test: ethanol/HCl mixture-induced gastric lesion test in rats
Type: in vivo, Male Sprague Dawley rats
Conditions: for inhibition of the formation of gastric lesions (gastric lesion score) relative to vehicle alone: 200 μmol/kg by oral gavage 30 min before 60% ethanol in 150 mM HCl intragastrically, lesions scored 60 min later, vehicle 0.5% Methocel, FIG. 1
Method: The ethanol/HCl mixture-induced gastric lesion test in rats described by Takeuchi et al, J. Pharmacol. Exp. Ther., 286: 115-121 (1998), was used to evaluate gastric lesion activity. Male Sprague Dawley rats (Charles River Laboratories, Wilmington, Ma.) weighing 230-250 g were used for the experiments. The rats were housed with laboratory chow and water ad libitum prior to the study. The rats were fasted for 24 hours with free access to water and then dosed by oral gavage with vehicle or with the test compounds given at a volume of 0.5 ml/100 g body weight. Thirty minutes after oral dosing all the rats received 1 ml of a solution of 60% ethanol in 150 mM HCl intragastrically. Food was withheld after dosing. Sixty minutes after ethanol/HCl, rats were euthanized by pre-charged CO2. The stomachs were dissected along the greater curvature, washed with a directed stream of 0.9% saline and pinned open on a sylgard based petri dish for examination of the hemorrhagic lesions. Gastric lesion score was expressed in mm and calculated by summing the length of each lesion as described by Al-Ghamdi et al, J. Int. Med. Res., 19:2242 (1991). Results are expressed as the mean ± standard error of the mean. Statistical analysis were conducted using ANOVA test followed by a Student-Newman-Keuls post-hoc test using the Abacus Concepts, Super Anova computer program (Abacus Concepts, Inc., Berkeley, Calif.).

Row | Structure (SMILES) | inhibition of the formation of gastric lesions (gastric lesion score) relative to vehicle alone | inhibition of the formation of gastric lesions (gastric lesion score) relative to lanzoprazole (200 μmol/kg by oral gavage 30 min before ethanol/HCl, p<0.05, FIG. 1)
1 | Cc1c(CC(F)(F)F)ccnc1C[S+]([O-])c1nc2ccccc2n1COC(=O)CCC(=O)N(Cc1ccccc1)CC(C)(C)SN=O (stereo not drawn) [Example 2, {2-({[3-Methyl-4-(2,2,2-trifluoroethyl)-2-pyridyl]methyl}sulfinyl)benzimidazolyl]-methyl-3-{N-[2-methyl-2-(nitrosothio)-propyl]-N-benzylcarbamoyl}propanoate] | significantly inhibited the formation of gastric lesions | inhibited the formation of gastric lesions
2 | Cc1c(OCC(F)(F)F)ccnc1C[S+]([O-])c1nc2ccccc2[nH]1 (stereo not drawn) [Lanzoprazole, 2-(((3-methyl-4-(2,2,2-trifluoro-ethoxy)-2-pyridinyl)methyl)sulfinyl)-1H-benzimidazole, reference compound] | did not significantly inhibit the formation of gastric lesions; also recorded: failed to significantly inhibit the formation of gastric lesions | –
